# In publication PMC9134315, “Systemic Administration of a Brain Permeable Cdk5 Inhibitor Alters Neurobehavior” (Frontiers in Pharmacology, 2022):
# What was measured:
# C57BL/6 mice [1] = test: Open-field test; assay type: in vivo, mouse; details: 50 mg/kg
# Experimental: The OFT was performed as described ([Chakraborti et al., 2021]). With the adaptation duration of the test being 1 h for each mouse, briefly, the mice were placed in a square box (40 cm × 40 cm) and allowed to freely explore. The center square portion of the maze was defined as the “open area.” Video tracking using EthoVision 16 software was used to track animal movement throughout the box and stereotypic and locomotive behaviors such as hopping, sniffing, and rearing. Total distance traveled, entries into the center of the maze, and duration in the center were tracked and analyzed in EthoVision.
# To establish a functional effect of pharmacological Cdk5 inhibition in the brain, we tested mouse performance in two behavioral paradigms previously shown to be altered in Cdk5 knockout mice: the open-field maze and the tail suspension test ([Plattner et al., 2015]). The open-field maze was used to measure locomotion and anxiety-like behavior ([Cacace et al., 2011]; [Seibenhener and Wooten, 2015]). Mice were injected with either vehicle or 50 mg/kg of 25–106 and allowed to freely explore an open-field maze for 1 h with locomotor activity being tracked (Figure 7).
# C57BL/6 mice [2] = test: Tail suspension test; assay type: in vivo, mouse; details: 50 mg/kg, 6 h after injection
# Experimental: The tail suspension test was conducted as previously described ([Plattner et al., 2015]). The mice were suspended by their tails for a total duration of 6 min and video-recorded. Post-hoc blind experimentalists quantified the duration and latency of immobility for each randomized video. The average quantitative determents of each observer were averaged to generate the final analytic values of motion.
# Next, we tested the effects of 25–106 on mouse performance in the tail-suspension test to measure depressive-like phenotypes in mice ([Cryan et al., 2005]; [Can et al., 2012]). […] Thus, 25–106 modulated several neurobehavioral behaviors that have previously been linked to Cdk5.
# Cdk5 = target: T1, Cdk5 (Mus musculus, UniProt P49615); test: In vivo Cdk5 inhibition after I.V. injection, immunoblot of striatal phospho-Ser549 synapsin I; details: for phospho-Ser549 synapsin I levels in the striatum: 50 mg/kg I.V.
# T1 construct: from tissue; host or cells: striatum of wild-type C57BL/6 mice (acute slices, or lysates after I.V. dosing)
# Experimental: The wild-type group housed male C57BL/6 mice 10–12 weeks of age were used for all in vivo, ex vivo, and behavioral studies. This age range was selected to be consistent with previous studies of conditional Cdk5 knockout mice ([Plattner et al., 2015]). 25–106 was administered in a 20-fold dose range intravenously (I.V.) at 10, 50, 100, and 200 mg/kg for pharmacokinetic studies. This delivery mode was used as I.V. injections to avoid first-pass drug metabolism observed using other injection methods ([Pond and Tozer, 1984]). […] All animal experiments were performed under approved protocols by the University of Alabama at Birmingham (UAB) Institutional Animal Care and Use Committees and in accordance with the guidelines of the Animal Welfare Act and the Guide for the Care and Use of Laboratory Animals.
# Immunoblotting was performed as previously described ([Umfress et al., 2021]). Mouse brains were rapidly dissected in an ice-cold solution of 50 mM NaF/PBS. The regions of interest were further dissected out and rapidly snap-frozen in dry ice. The frozen tissue was homogenized in boiling lysis buffer (1% SDS, 50 mM NaF) and sonicated with several three to four pulses at 40 dB. The samples were subsequently denatured at 90°C for 5 min. Protein concentration was determined by the BCA assay, and homogenates were diluted in 4x sample buffer, separated by SDS-PAGE, and transferred to 0.45-µm nitrocellulose membranes, blocked with 5% milk solution (1 h), and probed with primary antibodies (overnight). The following antibodies were used in the study: phospho-Ser549 synapsin I (Phosphosolutions), total synapsin I (Phosphosolutions), actin (Invitrogen), phospho-Ser1116 (in-house) ([Plattner et al., 2014]), and total NR2B (Phosphosolutions), phospho-Thr75, and total DARPP-32 (Cell Signaling Technology). Visualization was performed using the Licor CLX membrane scanner and Licor secondary antibodies.
# Each of the four compounds tested in brain slices was further screened for their ability to penetrate the blood–brain barrier (BBB) and inhibit Cdk5-dependent activity in vivo. For these studies, cohorts of mice were treated with each compound via I.V. injection (50 mg/kg), and brain striatal lysates from various time points were subjected to quantitative immunoblot analysis for phosho-Ser549 Synapsin I levels. Three compounds, 20–107, 20–132, and 20–143, had no effect on Cdk5 activity compared to that of vehicle alone (data not shown). […] Moreover, this effect persisted even 24 h after dosing.
# T1 sequence (P49615 whole entry): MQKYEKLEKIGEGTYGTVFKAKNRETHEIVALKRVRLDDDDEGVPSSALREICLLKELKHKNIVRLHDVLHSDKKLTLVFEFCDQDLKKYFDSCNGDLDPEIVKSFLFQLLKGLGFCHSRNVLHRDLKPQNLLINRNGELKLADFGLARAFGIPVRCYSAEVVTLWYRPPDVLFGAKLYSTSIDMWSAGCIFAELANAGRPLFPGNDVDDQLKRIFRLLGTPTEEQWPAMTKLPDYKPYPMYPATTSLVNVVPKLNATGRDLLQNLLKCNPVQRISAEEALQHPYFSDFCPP
# T1 sequence (P61809 2-307 partner limits assumed): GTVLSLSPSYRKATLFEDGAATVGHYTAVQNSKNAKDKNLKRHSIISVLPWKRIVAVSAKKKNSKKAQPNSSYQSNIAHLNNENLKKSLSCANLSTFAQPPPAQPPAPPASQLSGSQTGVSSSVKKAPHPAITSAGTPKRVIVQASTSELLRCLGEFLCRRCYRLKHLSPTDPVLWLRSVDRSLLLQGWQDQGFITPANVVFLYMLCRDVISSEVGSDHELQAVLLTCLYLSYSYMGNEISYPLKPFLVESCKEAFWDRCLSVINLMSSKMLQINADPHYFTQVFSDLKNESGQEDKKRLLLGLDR
structure (smiles),measurement,setting,value
"COc1cc(CC(=O)Nc2cc(C3CCC3)[nH]n2)cc(OC)c1OC [25–106, N-(5-cyclobutyl-1H-pyrazol-3-yl)-2-(3,4,5-trimethoxyphenyl)acetamide]",duration of time spent in the open portion of the maze vs. vehicle,"C57BL/6 mice [1]; 1 h after injection, 1 h test",longer duration of time
same,entries into the open portion of the maze vs. vehicle,"C57BL/6 mice [1]; 1 h after injection, 1 h test",increased number of entries
same,hopping bouts vs. vehicle,C57BL/6 mice [1]; open-field testing,increased hopping bouts
same,rearing behaviors vs. vehicle,C57BL/6 mice [1]; open-field testing,increased rearing behaviors
same,time sniffing vs. vehicle,C57BL/6 mice [1]; open-field testing,increased time sniffing
same,latency to immobility vs. vehicle,C57BL/6 mice [2],increased latency
same,total immobility time vs. vehicle,C57BL/6 mice [2],reduction in total immobility time
same,phospho-Ser549 synapsin I levels in the striatum,Cdk5; 2 h after injection,significantly reduced
same,phospho-Ser549 synapsin I levels in the striatum,Cdk5; 24 h after dosing,persisted
same,Cdk5-dependent phosphorylation in brain,Cdk5; 1 h post injection,remained unchanged
same,"striatal phospho-Ser549 synapsin I levels, dose-response","Cdk5; 24 h post injection, 10, 50, 100 and 200 mg/kg I.V., approximately equal efficacy",significant reduction
